Laboratory results reported in article PMC9553805 (Clinical Pharmacokinetics, 2022).
Values joined by “and” are separate entries in the source; they are usually repeats but may differ in a detail not shown here. Identical values can stand only once. Like-named read-outs stand apart in the source and are kept apart here.

Experiments:
CYP3A4 [1] = molecular target: T1, CYP3A4 (Homo sapiens, UniProt P08684); test: Part D: effect of steady-state tucatinib on pharmacokinetics of midazolam; details: for clinical classification as inhibitor of CYP3A/CYP3A4: steady-state tucatinib 300 mg BID, midazolam probe
T1 sequence (P08684 whole entry): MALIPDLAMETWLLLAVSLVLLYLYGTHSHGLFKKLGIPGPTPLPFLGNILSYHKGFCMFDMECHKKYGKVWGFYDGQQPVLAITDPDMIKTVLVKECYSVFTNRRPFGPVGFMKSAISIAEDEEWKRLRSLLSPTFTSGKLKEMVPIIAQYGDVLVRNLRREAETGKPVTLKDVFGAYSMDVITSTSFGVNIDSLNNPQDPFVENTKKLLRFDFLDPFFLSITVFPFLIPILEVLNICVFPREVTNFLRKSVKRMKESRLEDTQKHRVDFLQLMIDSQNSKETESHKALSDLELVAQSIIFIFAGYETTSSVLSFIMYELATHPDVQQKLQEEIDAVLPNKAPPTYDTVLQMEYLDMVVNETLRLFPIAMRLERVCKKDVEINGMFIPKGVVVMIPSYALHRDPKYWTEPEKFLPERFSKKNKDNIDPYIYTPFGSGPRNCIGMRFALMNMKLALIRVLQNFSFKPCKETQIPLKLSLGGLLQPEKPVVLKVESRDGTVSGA

CYP2C9 [2] = molecular target: CYP2C9 (Homo sapiens, UniProt P11712); test: Part D: effect of steady-state tucatinib on pharmacokinetics of tolbutamide
Sequence of CYP2C9 (Homo sapiens, UniProt P11712) (P11712 whole entry): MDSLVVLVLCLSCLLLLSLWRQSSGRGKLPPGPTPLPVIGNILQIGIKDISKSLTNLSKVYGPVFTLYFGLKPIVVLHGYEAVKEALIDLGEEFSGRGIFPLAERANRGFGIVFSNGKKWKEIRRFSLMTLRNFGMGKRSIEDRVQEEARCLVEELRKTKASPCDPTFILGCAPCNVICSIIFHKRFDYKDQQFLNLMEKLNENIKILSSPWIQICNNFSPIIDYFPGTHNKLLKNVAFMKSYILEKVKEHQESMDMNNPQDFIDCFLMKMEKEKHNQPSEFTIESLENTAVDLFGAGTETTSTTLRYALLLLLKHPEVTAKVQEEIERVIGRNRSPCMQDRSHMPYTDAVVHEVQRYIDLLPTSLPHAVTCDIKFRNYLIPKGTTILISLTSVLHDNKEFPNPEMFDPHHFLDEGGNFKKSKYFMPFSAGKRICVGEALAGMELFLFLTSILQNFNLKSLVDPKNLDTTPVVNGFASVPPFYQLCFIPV

[3] = cited from earlier work
P-glycoprotein (P-gp) [4] = molecular target: P-glycoprotein (P-gp) (Homo sapiens, UniProt P08183); test: Part E: effect of steady-state tucatinib on pharmacokinetics of digoxin; assay type: in vivo; details: for clinical classification as inhibitor of P-glycoprotein: steady-state tucatinib 300 mg BID, digoxin probe
Sequence of P-glycoprotein (P-gp) (Homo sapiens, UniProt P08183) (P08183 whole entry): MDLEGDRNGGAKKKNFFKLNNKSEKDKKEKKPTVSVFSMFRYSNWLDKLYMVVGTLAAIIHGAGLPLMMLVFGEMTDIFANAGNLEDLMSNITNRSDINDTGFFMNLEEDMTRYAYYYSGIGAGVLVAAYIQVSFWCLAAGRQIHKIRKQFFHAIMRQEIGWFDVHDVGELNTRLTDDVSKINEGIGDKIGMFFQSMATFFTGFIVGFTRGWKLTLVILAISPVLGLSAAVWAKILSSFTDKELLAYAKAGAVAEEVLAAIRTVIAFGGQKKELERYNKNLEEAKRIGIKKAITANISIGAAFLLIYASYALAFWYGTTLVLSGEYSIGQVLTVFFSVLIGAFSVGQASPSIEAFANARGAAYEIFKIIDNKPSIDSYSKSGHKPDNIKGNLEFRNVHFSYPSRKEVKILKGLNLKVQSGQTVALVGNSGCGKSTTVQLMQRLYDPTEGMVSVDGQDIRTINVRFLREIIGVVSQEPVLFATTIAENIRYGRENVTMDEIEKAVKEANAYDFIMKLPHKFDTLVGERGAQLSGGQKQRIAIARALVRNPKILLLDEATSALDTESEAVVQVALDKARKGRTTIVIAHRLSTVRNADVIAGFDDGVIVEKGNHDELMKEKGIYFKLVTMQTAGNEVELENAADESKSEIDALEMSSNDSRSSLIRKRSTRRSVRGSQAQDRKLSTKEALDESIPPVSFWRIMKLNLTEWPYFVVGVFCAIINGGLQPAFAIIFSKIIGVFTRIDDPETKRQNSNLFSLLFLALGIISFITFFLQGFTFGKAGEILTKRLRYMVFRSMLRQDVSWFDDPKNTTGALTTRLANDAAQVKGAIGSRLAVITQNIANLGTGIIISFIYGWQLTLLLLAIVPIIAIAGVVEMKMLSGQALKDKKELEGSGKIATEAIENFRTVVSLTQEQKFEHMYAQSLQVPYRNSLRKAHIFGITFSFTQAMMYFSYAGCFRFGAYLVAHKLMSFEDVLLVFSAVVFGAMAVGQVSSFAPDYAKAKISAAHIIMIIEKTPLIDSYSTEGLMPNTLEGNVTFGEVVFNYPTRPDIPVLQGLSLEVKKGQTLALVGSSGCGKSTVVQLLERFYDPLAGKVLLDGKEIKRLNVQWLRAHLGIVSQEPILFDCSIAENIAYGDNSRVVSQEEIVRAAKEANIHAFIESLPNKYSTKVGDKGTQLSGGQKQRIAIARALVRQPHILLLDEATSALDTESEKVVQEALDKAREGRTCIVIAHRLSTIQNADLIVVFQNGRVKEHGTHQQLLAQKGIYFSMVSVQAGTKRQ

CYP3A4 [5] = details: in vitro; cited from earlier work
CYP2C8 [6] = details: in vitro; cited from earlier work
P-glycoprotein (P-gp) [7] = details: in vitro; cited from earlier work
CYP2C8 [8] = molecular target: T2, CYP2C8 (Homo sapiens, UniProt P10632); details: for clinical classification as inhibitor of CYP2C8: steady-state tucatinib 300 mg BID, repaglinide probe
T2 sequence (P10632 1-490): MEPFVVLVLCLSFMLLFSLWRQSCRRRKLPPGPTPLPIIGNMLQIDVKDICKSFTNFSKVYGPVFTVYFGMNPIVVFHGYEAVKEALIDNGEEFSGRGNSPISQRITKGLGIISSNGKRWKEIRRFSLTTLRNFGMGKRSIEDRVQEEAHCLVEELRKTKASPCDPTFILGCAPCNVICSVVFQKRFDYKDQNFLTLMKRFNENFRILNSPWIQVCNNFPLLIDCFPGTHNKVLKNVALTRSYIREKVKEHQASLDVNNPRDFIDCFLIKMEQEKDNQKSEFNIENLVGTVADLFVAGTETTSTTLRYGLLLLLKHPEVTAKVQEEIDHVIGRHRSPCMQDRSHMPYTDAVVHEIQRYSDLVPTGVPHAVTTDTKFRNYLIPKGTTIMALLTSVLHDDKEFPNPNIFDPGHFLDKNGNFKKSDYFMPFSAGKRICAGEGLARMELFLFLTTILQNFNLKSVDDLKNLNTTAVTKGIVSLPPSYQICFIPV

Safety assessments = assay type: in vivo, human
CYP2C9 [9] = details: in vitro; cited from earlier work
CYP2C8 [10] = assay type: in vivo, human; details: 84 subjects enrolled in this study; regardless of phenotype
CYP2C8 [11] = molecular target: T2, CYP2C8
CYP3A4 [12] = molecular target: T1, CYP3A4; test: Part A: effect of itraconazole; assay type: in vivo
CYP3A4/CYP2C8 = test: Part B: effect of rifampin; assay type: in vivo, human
[13] = humans, cited from earlier work
[14] = with tucatinib vs tolbutamide/midazolam alone
[15] = tolbutamide/midazolam + tucatinib vs tolbutamide/midazolam alone
[16] = tucatinib + gemfibrozil vs tucatinib alone
[17] = tucatinib + itraconazole vs tucatinib alone
[18] = tucatinib + rifampin vs tucatinib alone
[19] = following gemfibrozil vs tucatinib alone
[20] = coadministration of itraconazole vs tucatinib alone
[21] = in the presence of rifampin vs tucatinib alone
[22] = digoxin + tucatinib vs digoxin alone

OCc1ncc2n1-c1ccc(Cl)cc1C(c1ccccc1F)=NC2 [1-hydroxymidazolam]
effect of tucatinib on exposure based on AUC0–last and AUC0–inf (CYP3A4 [1]; [14]): no effect | reduction of Cmax (CYP3A4 [1]; [14]): approximately 40%

CCCCNC(=O)NS(=O)(=O)c1ccc(CO)cc1 [4-hydroxytolbutamide, reference compound]
plasma exposures with vs without tucatinib (CYP2C9 [2]; [15]): Similar

Cc1cc(Nc2ncnc3ccc(NC4=NC(C)(C)CO4)cc23)ccc1Oc1ccn2ncnc2c1 [Tucatinib]
impact of food on tucatinib exposures [3]: no clinically relevant impact | clinical classification as inhibitor of P-glycoprotein (P-glycoprotein (P-gp) [4]): weak inhibitor | clinical classification as inhibitor of P-glycoprotein (P-glycoprotein (P-gp) [4]; listed as tucatinib): only weakly inhibits | inactivation of CYP3A (CYP3A4 [5]): time/metabolism-dependent inactivation | type of inhibition of CYP3A4 (CYP3A4 [5]): competitive inhibition | impact on CYP2C9-mediated metabolism in humans (CYP2C9 [2]; steady-state tucatinib 300 mg BID, tolbutamide probe): no impact | type of inhibition of CYP2C8 (CYP2C8 [6]): competitive inhibition | type of inhibition of P-glycoprotein (P-gp) (P-glycoprotein (P-gp) [7]): competitive inhibition | clinical classification as inhibitor of CYP2C8 (CYP2C8 [8]): weak inhibitor | clinical classification as inhibitor of CYP2C8 (CYP2C8 [8]; listed as tucatinib): only weakly inhibits | clinical classification as inhibitor of CYP3A/CYP3A4 (CYP3A4 [1]): strong inhibitor | clinical classification as inhibitor of CYP3A/CYP3A4 (CYP3A4 [1]; listed as tucatinib): strong CYP3A4 inhibitor | participants with serum creatinine increases (Safety assessments; Part A): 50% | participants with serum creatinine increases (Safety assessments; Part B): 4% | participants with serum creatinine increases (Safety assessments; Part D): 71% | participants with serum creatinine increases (Safety assessments; Part E): 54% | Grade 3 or higher events (Safety assessments; Parts A through E overall): No Grade 3 or higher events | TEAEs considered Grade 1 (events) (Safety assessments; Parts A through E overall): 65 | total number of TEAEs (Safety assessments; Parts A through E overall): 71 | subjects reporting TEAEs (Safety assessments; Parts A through E overall, 37 of 114 subjects): 32.5% | tolerability (Safety assessments; Parts A–E, alone and with co-administered drugs): well tolerated | events of ALT elevation reported as Grade 1 TEAEs (Safety assessments; Parts D and E): five | renal function by cystatin C levels (Safety assessments; Parts D and E): did not reveal any elevated values | type of inhibition of CYP2C9 (CYP2C9 [9]): competitive inhibition | tucatinib exposures by CYP2C8 metabolizer phenotype (CYP2C8 [10]): similar | increase in plasma exposure based on AUC0–inf (CYP2C8 [11]; [16]): ~3.0 fold | increase in plasma exposure based on AUC0–last (CYP2C8 [11]; [16]): approximately 3.0 fold | increase in plasma exposure based on Cmax (CYP2C8 [11]; [16]): ~1.6 fold | increase in plasma exposure based on AUC0–inf (CYP3A4 [12]; [17]): ~ 1.3 fold | increase in plasma exposure based on AUC0–last (CYP3A4 [12]; [17]): approximately 1.3 fold | increase in plasma exposure based on Cmax (CYP3A4 [12]; [17]): approximately 1.3 fold | decrease in plasma exposure based on AUC0–inf (CYP3A4/CYP2C8; [18]): 48% | decrease in plasma exposure based on AUC0–last (CYP3A4/CYP2C8; [18]): approximately 48% | decrease in plasma exposure based on Cmax (CYP3A4/CYP2C8; [18]): ~37% | decrease in plasma exposure based on AUC0–inf (CYP3A4/CYP2C8; tucatinib + rifampin vs tucatinib alone, listed as tucatinib): approximately 48%

Cc1cc(Nc2ncnc3ccc(NC4=NC(C)(CO)CO4)cc23)ccc1Oc1ccn2ncnc2c1 (stereo not shown) [ONT-993]
radioactive component in feces, share of the dose ([13]; feces): 37% | radioactive component in urine, share of the dose ([13]; urine): 1.5% | decrease of metabolic ratio for AUC0–inf (CYP2C8 [11]; [19]): approximately 71% | decrease of metabolic ratio for Cmax (CYP2C8 [11]; [19]): ~81% | geometric least squares mean ratio for AUC0–inf (CYP3A4 [12]; [20]): 1.6 | geometric least squares mean ratio for Cmax (CYP3A4 [12]; [20]): 2.0 | metabolic ratio for AUC0–inf, fold higher (CYP3A4/CYP2C8; [21]): 1.4 fold | metabolic ratio for Cmax, fold higher (CYP3A4/CYP2C8; [21]): 3.3 fold

Cc1ncc2n1-c1ccc(Cl)cc1C(c1ccccc1F)=NC2 [Midazolam, midazolam]
increase in plasma exposure based on AUC0–inf (CYP3A4 [1]; [15]): 5.7 fold and > 5 fold | increase in plasma exposure based on AUC0–last (CYP3A4 [1]; [15]): 5.3 fold | increase in plasma exposure based on Cmax (CYP3A4 [1]; [15]): 3.0 fold | reduction of metabolic ratio for AUC0–inf (CYP3A4 [1]; [14]): approximately 83% | reduction of metabolic ratio for Cmax (CYP3A4 [1]; [14]): ~80%

CCOc1cc(CC(=O)N[C@@H](CC(C)C)c2ccccc2N2CCCCC2)ccc1C(=O)O [Repaglinide, repaglinide, reference compound]
increase in plasma exposure based on Cmax (CYP2C8 [8]; repaglinide + tucatinib vs repaglinide alone): ~1.7 fold

C[C@H]1O[C@@H](O[C@H]2[C@@H](O)C[C@H](O[C@H]3[C@@H](O)C[C@H](O[C@H]4CC[C@@]5(C)[C@H](CC[C@@H]6[C@@H]5C[C@@H](O)[C@]5(C)[C@@H](C7=CC(=O)OC7)CC[C@]65O)C4)O[C@@H]3C)O[C@@H]2C)C[C@H](O)[C@@H]1O [Digoxin, digoxin]
increase in plasma exposure based on AUC0–inf (P-glycoprotein (P-gp) [4]; [22]): approximately 1.5 fold | increase in plasma exposure based on AUC0–last (P-glycoprotein (P-gp) [4]; [22]): approximately 1.5 fold | increase in plasma exposure based on Cmax (P-glycoprotein (P-gp) [4]; [22]): ~2.4 fold
